Measurements as given in patent US5242929A, “Derivatives of substituted imidazol-2-one and process for their preparation” (Farmitalia Carlo Erba S.r.l., priority 1991, dated 1993).
Read-outs that look alike come from different tables or passages of the source.

Columns and labels:
5HT3 receptor [1] = molecular target: T1, 5HT3 receptor (Rattus norvegicus, UniProt P35563); assay: inhibition of the binding of ^3 H-GR65630 in rat entorhinal cortex; set-up: labeled in the entorhinal cortex of the rat brain; from tissue; host or cells: rat entorhinal cortex; settings: for binding model / interaction with 5-HT3 receptors: entorhinal cortex of the rat brain, ^3 H-GR 65630
T1 sequence (P35563 24-483): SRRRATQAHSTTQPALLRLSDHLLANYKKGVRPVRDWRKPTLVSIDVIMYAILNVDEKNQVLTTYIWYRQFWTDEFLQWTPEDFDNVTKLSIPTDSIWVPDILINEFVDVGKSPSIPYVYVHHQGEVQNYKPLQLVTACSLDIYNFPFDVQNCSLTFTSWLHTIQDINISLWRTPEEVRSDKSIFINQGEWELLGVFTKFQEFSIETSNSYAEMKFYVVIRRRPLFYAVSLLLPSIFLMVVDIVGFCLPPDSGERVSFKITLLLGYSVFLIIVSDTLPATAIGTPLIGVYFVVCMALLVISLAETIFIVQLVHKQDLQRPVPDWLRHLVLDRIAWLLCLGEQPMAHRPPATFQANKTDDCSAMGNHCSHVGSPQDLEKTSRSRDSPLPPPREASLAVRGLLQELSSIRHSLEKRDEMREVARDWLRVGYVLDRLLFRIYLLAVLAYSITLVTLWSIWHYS

5HT3 receptor [2] = molecular target: T1, 5HT3 receptor; assay: von Bezold-Jarisch chemoreflex evoked by 5-HT in the anesthetised rat; assay type: in vivo; set-up: chemoreflex evoked by 5-HT in the anesthetised rat; from tissue; host or cells: whole living anesthetised rat, endogenous receptor (vagal afferents by own knowledge); settings: 5-HT 20 μg/kg i.v., anesthetized rat; for % inhibition of the Bezold-Jarisch reflex: mean ± S.E.M. from 6 animals, *p < 0.01 vs controls (Dunnett's test)
Description: Pharmacol. 326, 36-44 (1984).
The following Table I reports the in vivo 5HT3 antagonist activity data obtained in this test for the representative compound of the invention 1-(1-azabicyclo[2.2.2]oct-3 yl)-3-(3-chlorophenyl)-imidazolidin-2-one (internal code FCE 26778).
Inhibition of the Bezold-Jarisch reflex elicited by 5-HT
(20 μg/kg i.v.) by i.v. FCE 26778 in the anesthetized rat.
Values are mean ± S.E.M. from 6 animals

Row | Structure (SMILES) | Ki (5HT3 receptor [1]) [nM] | Ki (5HT3 receptor [1]; [^3 H]GR 65630 labelled 5HT3 sites, rat entorhinal cortex, two site fitting, low affinity, read-out: Ki low) [nM] | binding model / interaction with 5-HT3 receptors (5HT3 receptor [1]) | % inhibition of the Bezold-Jarisch reflex (5HT3 receptor [2]; 30 μg/kg i.v.) [%] | % inhibition of the Bezold-Jarisch reflex (5HT3 receptor [2]; 100 μg/kg i.v.) [%] | % inhibition of the Bezold-Jarisch reflex (5HT3 receptor [2]; 300 μg/kg i.v.) [%] | ED50 (5HT3 receptor [2]; iv, limits 54.50-98.39) [mg/kg]
1 | O=C1N(c2cccc(Cl)c2)CCN1C1CN2CCC1CC2 (centres unmarked) [FCE 26778, 1-(1-azabicyclo[2.2.2]oct-3 yl)-3-(3-chlorophenyl)-imidazolidin-2-one] | 4.42 | 1100 | interacted according to a two site non-linear fitting model | 26.66 ± 5.25 | 59.57 ± 5.87 | 81.33 ± 3.32 | 0.0749
2 | CN1C2CCC1CC(OC(=O)c1cc(Cl)cc(Cl)c1)C2 (centres unmarked) [MDL 72222] | 25.5 |  | displaced ^3 H-GR 65630 according to one site non-linear fitting |  |  |  | 
3 | CCN(CC)CCNC(=O)c1cc(Cl)c(N)cc1OC [Metoclopramide] | 547 |  | displaced ^3 H-GR 65630 according to one site non-linear fitting |  |  |  | 
